This passage reports EC50 results from patent publication US20160347813A1, “GLUCAGON ANALOGUES” (Zealand Pharma A/S, priority 2011, published 2016).

pEC50: −log10 of the molar value. Residues, ends and D or L forms follow the SMILES beside them.

One experiment deals with T1, human Glucagon-R (Homo sapiens, UniProt P47871).
T1 construct: The DNA encoding the Glucagon-R or the GLP-1-R was amplified by PCR using primers encoding terminal restriction sites for subcloning; expressed in transfected cells
T1 sequence (P47871 26-477): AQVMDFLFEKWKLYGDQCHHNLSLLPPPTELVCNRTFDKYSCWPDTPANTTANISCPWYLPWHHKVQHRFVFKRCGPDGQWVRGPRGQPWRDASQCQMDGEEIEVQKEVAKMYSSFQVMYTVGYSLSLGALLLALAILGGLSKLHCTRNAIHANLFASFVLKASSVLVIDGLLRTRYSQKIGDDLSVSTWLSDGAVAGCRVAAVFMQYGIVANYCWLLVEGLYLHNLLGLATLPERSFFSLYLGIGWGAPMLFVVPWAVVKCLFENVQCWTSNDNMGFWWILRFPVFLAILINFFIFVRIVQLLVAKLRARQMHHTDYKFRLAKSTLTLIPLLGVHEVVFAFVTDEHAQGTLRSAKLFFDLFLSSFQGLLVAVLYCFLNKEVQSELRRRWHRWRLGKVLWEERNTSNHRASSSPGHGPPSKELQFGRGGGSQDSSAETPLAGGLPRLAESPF
Briefly: Glucagon receptor efficacy assay (cAMP generation in HEK293 cells). It counts as cell-based. The conditions noted are these: cAMP generation in HEK293 cells expressing Glucagon receptor. The text has this:
(§1) The DNA encoding the Glucagon-R or the GLP-1-R was amplified by PCR using primers encoding terminal restriction sites for subcloning. The 5′-end primers additionally encoded a near Kozak consensus sequence to ensure efficient translation. The fidelity of the DNA encoding the Glucagon-R and the GLP-1-R was confirmed by DNA sequencing. The PCR products encoding the Glucagon-R or the GLP-1-R were subcloned into a mammalian expression vector containing a neomycin (G418) resistance marker. The mammalian expression vectors encoding the Glucagon-R or the GLP-1-R were transfected into HEK293 cells by a standard calcium phosphate transfection method. 48 hr after transfection cells were seeded for limited dilution cloning and selected with 1 mg/ml G418 in the culture medium. Three weeks later 12 surviving colonies of Glucagon-R and GLP-1-R expressing cells were picked, propagated and tested in the Glucagon-R and GLP-1-R efficacy assays as described below. One Glucagon-R expressing clone and one GLP-1-R expressing clone were chosen for compound profiling.
(§2) On the day of analysis, growth medium was removed and the cells washed once with 200 μl Tyrode buffer. Cells were incubated in 100 μl Tyrode buffer containing increasing concentrations of test peptides, 100 μM IBMX, and 6 mM glucose for up 15 min at 37° C. The reaction was stopped by addition of 25 μl 0.5 M HCl and incubated on ice for 60 min. The cAMP content was estimated using the FlashPlate® cAMP kit from Perkin-Elmer according to manufacturer instructions. EC50 and relative efficacies compared to reference compounds (glucagon and GLP-1) were estimated by computer aided curve fitting.
Turning to `CCCCCCCCCCCCCCCC(=O)N[C@@H](CCC(=O)NCCCC[C@H](NC(=O)[C@H](CCC(=O)O)NC(=O)[C@H](CC(=O)O)NC(=O)[C@H](CC(C)C)NC(=O)[C@H](Cc1ccc(O)cc1)NC(=O)[C@H](CCCNC(=N)N)NC(=O)[C@H](CO)NC(=O)[C@H](Cc1ccc(O)cc1)NC(=O)[C@H](CC(=O)O)NC(=O)[C@H](CO)NC(=O)[C@@H](NC(=O)[C@H](Cc1ccccc1)NC(=O)[C@@H](NC(=O)CNC(=O)[C@H](Cc1c[nH]cn1)NC(=O)[C@H](CO)NC(=O)[C@@H](N)Cc1c[nH]cn1)[C@@H](C)O)[C@@H](C)O)C(=O)N[C@@H](CCCNC(=N)N)C(=O)N[C@@H](C)C(=O)N[C@@H](CCCNC(=N)N)C(=O)N[C@@H](CC(=O)O)C(=O)N[C@@H](Cc1ccccc1)C(=O)N[C@H](C(=O)N[C@@H](CCC(=O)O)C(=O)N[C@@H](Cc1c[nH]c2ccccc12)C(=O)N[C@@H](CC(C)C)C(=O)N[C@@H](CC(C)C)C(=O)N[C@@H](CO)C(=O)N[C@@H](C)C(N)=O)[C@@H](C)CC)C(=O)O` [Compound 10] (HELM PEPTIDE1{H.S.H.G.T.F.T.S.D.Y.S.R.Y.L.D.E.K.R.A.R.D.F.I.E.W.L.L.S.A.[am]}|PEPTIDE2{[CCCCCCCCCCCCCCCC(=O)[*:2]].[gGlu]}$PEPTIDE1,PEPTIDE2,17:R3-2:R2$$$V2.0), the pEC50 (in general, the negative decadic logarithm of the EC50, by convention in mol/L) was 10.22.

In another experiment the target is T2, human GLP-1-R (Homo sapiens, UniProt P43220).
T2 construct: The DNA encoding the Glucagon-R or the GLP-1-R was amplified by PCR using primers encoding terminal restriction sites for subcloning; expressed in transfected cells
T2 sequence (P43220 24-463): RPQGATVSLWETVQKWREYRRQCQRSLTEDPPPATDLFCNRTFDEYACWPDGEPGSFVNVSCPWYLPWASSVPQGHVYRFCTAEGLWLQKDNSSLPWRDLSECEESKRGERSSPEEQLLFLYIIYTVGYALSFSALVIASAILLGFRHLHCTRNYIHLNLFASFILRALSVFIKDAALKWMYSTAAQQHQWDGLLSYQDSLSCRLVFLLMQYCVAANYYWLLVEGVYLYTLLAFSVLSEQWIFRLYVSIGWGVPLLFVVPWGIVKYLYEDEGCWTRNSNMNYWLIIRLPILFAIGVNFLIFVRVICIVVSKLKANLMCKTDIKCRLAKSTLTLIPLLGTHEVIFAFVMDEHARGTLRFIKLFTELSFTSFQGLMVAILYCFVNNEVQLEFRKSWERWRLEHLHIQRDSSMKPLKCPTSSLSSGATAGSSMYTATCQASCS
Briefly: GLP-1 receptor efficacy assay (cAMP generation in HEK293 cells). The experiment is classed as cell-based. The conditions noted are these: cAMP generation in HEK293 cells expressing GLP-1 receptor.
Description: as §1, §2
Regarding `CCCCCCCCCCCCCCCC(=O)N[C@@H](CCC(=O)NCCCC[C@H](NC(=O)[C@H](CCC(=O)O)NC(=O)[C@H](CC(=O)O)NC(=O)[C@H](CC(C)C)NC(=O)[C@H](Cc1ccc(O)cc1)NC(=O)[C@H](CCCNC(=N)N)NC(=O)[C@H](CO)NC(=O)[C@H](Cc1ccc(O)cc1)NC(=O)[C@H](CC(=O)O)NC(=O)[C@H](CO)NC(=O)[C@@H](NC(=O)[C@H](Cc1ccccc1)NC(=O)[C@@H](NC(=O)CNC(=O)[C@H](CCC(N)=O)NC(=O)C(C)(C)NC(=O)[C@@H](N)Cc1c[nH]cn1)[C@@H](C)O)[C@@H](C)O)C(=O)N[C@@H](CCCNC(=N)N)C(=O)N[C@@H](C)C(=O)N[C@@H](CCCCN)C(=O)N[C@@H](CC(=O)O)C(=O)N[C@@H](Cc1ccccc1)C(=O)N[C@H](C(=O)N[C@@H](CCC(=O)O)C(=O)N[C@@H](Cc1c[nH]c2ccccc12)C(=O)N[C@@H](CC(C)C)C(=O)N[C@@H](CC(C)C)C(=O)N[C@@H](CO)C(=O)N[C@@H](C)C(N)=O)[C@@H](C)CC)C(=O)O` [Compound 16] (HELM PEPTIDE1{H.[Aib].Q.G.T.F.T.S.D.Y.S.R.Y.L.D.E.K.R.A.K.D.F.I.E.W.L.L.S.A.[am]}|PEPTIDE2{[CCCCCCCCCCCCCCCC(=O)[*:2]].[gGlu]}$PEPTIDE1,PEPTIDE2,17:R3-2:R2$$$V2.0), the pEC50 is 10.22.

In turn, `CCCCCCCCCCCCCCCC(=O)N[C@@H](CCC(=O)NCCCC[C@H](NC(=O)[C@H](CCC(=O)O)NC(=O)[C@H](CC(=O)O)NC(=O)[C@H](CC(C)C)NC(=O)[C@H](Cc1ccc(O)cc1)NC(=O)[C@H](CCCCN)NC(=O)[C@H](CO)NC(=O)[C@H](Cc1ccc(O)cc1)NC(=O)[C@H](CC(=O)O)NC(=O)[C@H](CO)NC(=O)[C@@H](NC(=O)[C@H](Cc1ccccc1)NC(=O)[C@@H](NC(=O)CNC(=O)[C@H](CCC(N)=O)NC(=O)[C@@H](CO)NC(=O)[C@@H](N)Cc1c[nH]cn1)[C@@H](C)O)[C@@H](C)O)C(=O)N[C@@H](CCCNC(=N)N)C(=O)N[C@@H](C)C(=O)N[C@@H](CCCCN)C(=O)N[C@@H](CC(=O)O)C(=O)N[C@@H](Cc1ccccc1)C(=O)N[C@H](C(=O)N[C@@H](CCC(=O)O)C(=O)N[C@@H](Cc1c[nH]c2ccccc12)C(=O)N[C@@H](CC(C)C)C(=O)N[C@@H](CC(C)C)C(=O)N[C@@H](CO)C(=O)N[C@@H](C)C(N)=O)[C@@H](C)CC)C(=O)O` [Compound 17] (HELM PEPTIDE1{H.[dS].Q.G.T.F.T.S.D.Y.S.K.Y.L.D.E.K.R.A.K.D.F.I.E.W.L.L.S.A.[am]}|PEPTIDE2{[CCCCCCCCCCCCCCCC(=O)[*:2]].[gGlu]}$PEPTIDE1,PEPTIDE2,17:R3-2:R2$$$V2.0) had a pEC50 of 10.15. The pEC50 values of the last two compounds are within 0.2 log units of each other. The same measure, in the same setting: with `CCCCCCCCCCCCCCCC(=O)N[C@@H](CCC(=O)NCCCC[C@H](NC(=O)[C@H](CCC(=O)O)NC(=O)[C@H](CC(=O)O)NC(=O)[C@H](CC(C)C)NC(=O)[C@H](Cc1ccc(O)cc1)NC(=O)[C@H](CCCNC(=N)N)NC(=O)[C@H](CO)NC(=O)[C@H](Cc1ccc(O)cc1)NC(=O)[C@H](CC(=O)O)NC(=O)[C@H](CO)NC(=O)[C@@H](NC(=O)[C@H](Cc1ccccc1)NC(=O)[C@@H](NC(=O)CNC(=O)[C@H](Cc1c[nH]cn1)NC(=O)C(C)(C)NC(=O)[C@@H](N)Cc1c[nH]cn1)[C@@H](C)O)[C@@H](C)O)C(=O)N[C@@H](CCCNC(=N)N)C(=O)N[C@@H](C)C(=O)N[C@@H](CCCNC(=N)N)C(=O)N[C@@H](CC(=O)O)C(=O)N[C@@H](Cc1ccccc1)C(=O)N[C@H](C(=O)N[C@@H](CCC(=O)O)C(=O)N[C@@H](Cc1c[nH]c2ccccc12)C(=O)N[C@@H](CC(C)C)C(=O)N[C@@H](CC(C)C)C(=O)N[C@@H](CO)C(=O)N[C@@H](C)C(N)=O)[C@@H](C)CC)C(=O)O` [Compound 12] (HELM PEPTIDE1{H.[Aib].H.G.T.F.T.S.D.Y.S.R.Y.L.D.E.K.R.A.R.D.F.I.E.W.L.L.S.A.[am]}|PEPTIDE2{[CCCCCCCCCCCCCCCC(=O)[*:2]].[gGlu]}$PEPTIDE1,PEPTIDE2,17:R3-2:R2$$$V2.0) the figure was 10.22. As to `CCCCCCCCCCCCCCCC(=O)N[C@@H](CCC(=O)NCCCC[C@H](NC(=O)[C@H](CCC(=O)O)NC(=O)[C@H](CC(=O)O)NC(=O)[C@H](CC(C)C)NC(=O)[C@H](Cc1ccc(O)cc1)NC(=O)[C@H](CCCNC(=N)N)NC(=O)[C@H](CO)NC(=O)[C@H](Cc1ccc(O)cc1)NC(=O)[C@H](CC(=O)O)NC(=O)[C@H](CO)NC(=O)[C@@H](NC(=O)[C@H](Cc1ccccc1)NC(=O)[C@@H](NC(=O)CNC(=O)[C@@H]1CCCN1C(=O)[C@@H](CO)NC(=O)[C@@H](N)Cc1c[nH]cn1)[C@@H](C)O)[C@@H](C)O)C(=O)N[C@@H](CCCNC(=N)N)C(=O)N[C@@H](C)C(=O)N[C@@H](CCCNC(=N)N)C(=O)N[C@@H](CC(=O)O)C(=O)N[C@@H](Cc1ccccc1)C(=O)N[C@H](C(=O)N[C@@H](CCC(=O)O)C(=O)N[C@@H](Cc1c[nH]c2ccccc12)C(=O)N[C@@H](CC(C)C)C(=O)N[C@@H](CC(C)C)C(=O)N[C@@H](CO)C(=O)N[C@@H](C)C(N)=O)[C@@H](C)CC)C(=O)O` [Compound 14] (HELM PEPTIDE1{H.[dS].P.G.T.F.T.S.D.Y.S.R.Y.L.D.E.K.R.A.R.D.F.I.E.W.L.L.S.A.[am]}|PEPTIDE2{[CCCCCCCCCCCCCCCC(=O)[*:2]].[gGlu]}$PEPTIDE1,PEPTIDE2,17:R3-2:R2$$$V2.0), the pEC50 was 9.92. As for `CCCCCCCCCCCCCCCC(=O)N[C@@H](CCC(=O)NCCCC[C@H](NC(=O)[C@H](CCC(=O)O)NC(=O)[C@H](CC(=O)O)NC(=O)[C@H](CC(C)C)NC(=O)[C@H](Cc1ccc(O)cc1)NC(=O)[C@H](CCCNC(=N)N)NC(=O)[C@H](CO)NC(=O)[C@H](Cc1ccc(O)cc1)NC(=O)[C@H](CC(=O)O)NC(=O)[C@H](CO)NC(=O)[C@@H](NC(=O)[C@H](Cc1ccccc1)NC(=O)[C@@H](NC(=O)CNC(=O)[C@@H]1CCCN1C(=O)C(C)(C)NC(=O)[C@@H](N)Cc1c[nH]cn1)[C@@H](C)O)[C@@H](C)O)C(=O)N[C@@H](CCCNC(=N)N)C(=O)N[C@@H](C)C(=O)N[C@@H](CCCNC(=N)N)C(=O)N[C@@H](CC(=O)O)C(=O)N[C@@H](Cc1ccccc1)C(=O)N[C@H](C(=O)N[C@@H](CCC(=O)O)C(=O)N[C@@H](Cc1c[nH]c2ccccc12)C(=O)N[C@@H](CC(C)C)C(=O)N[C@@H](CC(C)C)C(=O)N[C@@H](CO)C(=O)N[C@@H](C)C(N)=O)[C@@H](C)CC)C(=O)O` [Compound 15] (HELM PEPTIDE1{H.[Aib].P.G.T.F.T.S.D.Y.S.R.Y.L.D.E.K.R.A.R.D.F.I.E.W.L.L.S.A.[am]}|PEPTIDE2{[CCCCCCCCCCCCCCCC(=O)[*:2]].[gGlu]}$PEPTIDE1,PEPTIDE2,17:R3-2:R2$$$V2.0), the pEC50 is 10.22. The compound `CCCCCCCCCCCCCCCC(=O)N[C@@H](CCC(=O)NCCCC[C@H](NC(=O)[C@H](CC(=O)O)NC(=O)[C@H](CC(C)C)NC(=O)[C@H](Cc1ccc(O)cc1)NC(=O)[C@H](CCCCN)NC(=O)[C@H](CO)NC(=O)[C@H](Cc1ccc(O)cc1)NC(=O)[C@H](CC(=O)O)NC(=O)[C@H](CO)NC(=O)[C@@H](NC(=O)[C@H](Cc1ccccc1)NC(=O)[C@@H](NC(=O)CNC(=O)[C@H](CCC(N)=O)NC(=O)C(C)(C)NC(=O)[C@@H](N)Cc1c[nH]cn1)[C@@H](C)O)[C@@H](C)O)C(=O)N[C@@H](CCCNC(=N)N)C(=O)N[C@@H](CCCNC(=N)N)C(=O)N[C@@H](C)C(=O)N[C@@H](CCCCN)C(=O)N[C@@H](CC(=O)O)C(=O)N[C@@H](Cc1ccccc1)C(=O)N[C@H](C(=O)N[C@@H](CCC(=O)O)C(=O)N[C@@H](Cc1c[nH]c2ccccc12)C(=O)N[C@@H](CC(C)C)C(=O)N[C@@H](CC(C)C)C(=O)N[C@@H](CO)C(=O)N[C@@H](C)C(N)=O)[C@@H](C)CC)C(=O)O` [Compound 1] (HELM PEPTIDE1{H.[Aib].Q.G.T.F.T.S.D.Y.S.K.Y.L.D.K.R.R.A.K.D.F.I.E.W.L.L.S.A.[am]}|PEPTIDE2{[CCCCCCCCCCCCCCCC(=O)[*:2]].[gGlu]}$PEPTIDE1,PEPTIDE2,16:R3-2:R2$$$V2.0) showed a pEC50 of 9.92. This pEC50 lies 0.30 log units lower than the previous one.
